{"source": "patent US10004815B2", "about": "“Near-infrared quenching group” (priority 2013, dated 2018)", "type_in_all_cases": "physicochemical", "key": {"[1]": {"assay": "Absorption spectrum measurement", "details": "for maximum absorption wavelength: PBS (1% DMSO); for Λabs. max: 0.1% DMSO as cosolvent", "procedure": "The absorption spectrum of a […] PBS solution of comparative compound 2 (containing 0.1% DMSO as cosolvent) was measured.\nThe maximum absorption wavelength of compound 1 was 763 nm, and the maximum absorption wavelength of compound 4 was 732 nm."}, "[2]": {"assay": "Changes over time in the absorption spectrum in water (PBS)", "details": "PBS solution, 0.1% DMSO as cosolvent"}, "[3]": {"assay": "Fluorescence spectrum / quantum efficiency of fluorescence (ICG in DMSO as standard)", "details": "both water and organic solvents; excitation 760 nm", "procedure": "The absorption spectra and fluorescence spectra (excitation wavelength 760 nm) of […] PBS, methanol, DMF, and chloroform solutions of comparative compound 1 (each containing 0.1% DMSO as cosolvent) were measured."}}, "data": [{"smiles": "Cc1cccc(C)c1C1=C2C=C/C(=[N+]3/CCCc4cc(S(=O)(=O)O)ccc43)C=C2[Si](C)(C)c2cc(N3CCCc4cc(S(=O)(=O)O)ccc43)ccc21", "note": "[compound 4, 2,6-diMe-SO3H Tetrahydroquinoline-Si-QSY21]", "values": [{"measurement": "maximum absorption wavelength", "setting": "[1]", "value": 732, "unit": "nm"}]}, {"smiles": "COc1cccc(OC)c1C1=C2C=C/C(=[N+]3/CCc4cc(S(=O)(=O)O)ccc43)C=C2[Si](C)(C)c2cc(N3CCc4cc(S(=O)(=O)O)ccc43)ccc21", "note": "[compound 2, 2,6-diOMe-SO3H Indoline-Si-QSY21]", "values": [{"measurement": "changes over time in absorption in water (stability in water)", "setting": "[2]", "value": "no decrease in absorption in water was observed"}]}, {"smiles": "Cc1ccccc1C1=C2C=C/C(=[N+]3/CCc4ccccc43)C=C2[Si](C)(C)c2cc(N3CCc4ccccc43)ccc21", "note": "[comparative compound 1, 2-Me-Si-QSY21]", "values": [{"measurement": "absorption spectrum reached up to", "setting": "[1]", "value": "up to 850 nm"}, {"measurement": "Λabs. max", "setting": "[1]; Chloroform", "value": 790, "unit": "nm"}, {"measurement": "Λabs. max", "setting": "[1]; DMF", "value": 790, "unit": "nm"}, {"measurement": "Λabs. max", "setting": "[1]; MeOH", "value": 779, "unit": "nm"}, {"measurement": "Λabs. max", "setting": "[1]; PBS", "value": 764, "unit": "nm"}, {"measurement": "fluorescence quantum yield", "setting": "[3]", "value": "≤ 0.001"}]}, {"smiles": "Cc1cccc(C)c1C1=C2C=C/C(=[N+]3/CCc4cc(S(=O)(=O)O)ccc43)C=C2[Si](C)(C)c2cc(N3CCc4cc(S(=O)(=O)O)ccc43)ccc21", "note": "[compound 1, 2,6-diMe-SO3H Indoline-Si-QSY21]", "values": [{"measurement": "maximum absorption wavelength", "setting": "[1]", "value": 763, "unit": "nm"}, {"measurement": "changes over time in absorption in water (stability in water)", "setting": "[2]", "value": "no decrease in absorption in water was observed"}]}, {"smiles": "Cc1ccccc1C1=C2C=C/C(=[N+]3/CCc4cc(S(=O)(=O)O)ccc43)C=C2[Si](C)(C)c2cc(N3CCc4cc(S(=O)(=O)O)ccc43)ccc21", "note": "[comparative compound 2, 2-Me-SO3H—Si-QSY21]", "values": [{"measurement": "change in absorption wavelength due to introduction of a sulfone group", "setting": "[1]; PBS solution, 0.1% DMSO", "value": "no change in absorption wavelength"}, {"measurement": "changes over time in absorption in water (stability in water)", "setting": "[2]", "value": "a gradual decrease in absorption was observed in water"}]}]}
